Data taken from patent US11351164B2, “Inhibitors of indoleamine 2,3-dioxygenase and methods of their use” (BRISTOL-MYERS SQUIBB COMPANY, priority 2016, dated 2022).

Columns and labels:
[1] = molecular target: T1, indoleamine 2,3-dioxygenase (IDO) (Homo sapiens, UniProt P14902); assay: HeLa cell-based indoleamine 2,3-dioxygenase (IDO) assay (IFNγ-induced kynurenine production, absorbance 480 nm); conditions: HeLa cells, IFNγ 25 ng/mL, 48 hour incubation
T1 construct: host or cells: HeLa cells treated with IFNγ (25 ng/mL)
Method: Assessment of inhibitor activity in HeLa cell-based indoleamine 2,3-dioxygenase (IDO) assay:
HeLa (ATCC® CCL-2) cells were obtained from the ATCC® and cultured in Dulbecco's Modified Eagle Medium supplemented with 4.5 g/L glucose, […] L-glutamine and […] (#10-013-CV, Corning), 2 mM L-alanyl-L-glutamine dipeptide (#35050-061, Gibco), 100U/mL penicillin, 100 μg/mL stroptomycin (#SV30010. HyClone) and 10% fetal bovine serum (#SH30071.03 HyClone). Cells were maintained in a humidified incubator at 37° C. in 5% CO2.
IDO activity was assessed as a function of kynurenine production as follows: HeLa cells were seeded in a 96-well culture plate at a density of 5,000 cells/well and allowed to equilibrate overnight. After 24 hours, the media was aspirated and replaced with media containing IFNγ (#285-IF/CF, R&D Systems) at a final concentration of 25 ng/mL. A serial dilution of each test compound was added to the cells in a total volume of 200 μL of culture medium. After a further 48 hour incubation, 170 μL of supernatant was transferred from each well to a fresh 96-well plate, 12.1 μL of 6.1N trichloroacetic acid (#T0699, Sigma-Aldrich) was added to each well and mixed, followed by incubation at 65° C. for 20 minutes to hydrolyze N-formylkynurenine, the product of indoleamine 2,3-dioxygenase, to kynurenine. The reaction mixture was then centrifuged for 10 mins at 500×g to sediment the precipitate. 100 μL of the supernatant was transferred from each well to a fresh 96-well plate. 100 μl of 2% (w/v) p-dimethylaminobenzaldehyde (#15647-7, Sigma-Aldrich) in acetic acid (#A6283, Sigma-Aldrich) was added to each well mixed and incubated at room temperature for 20 mins. Kynurenine concentrations were determined by measuring absorbance at 480 nm and calibrating against an L-kynurenine (#K8625, Sigma-Aldrich) standard curve using a SPECTRAMAX® M2e microplate reader (Molecular Devices). The percentage activity at each inhibitor concentration was determined and IC50 values assessed using nonlinear regression.

human IDO1 = molecular target: T2, human IDO1 (Homo sapiens, UniProt P14902); assay: IDO inhibition assay in HEK293 cells stably expressing human IDO1 (kynurenine, Ehrlich reagent, absorbance 490 nm); format: cell-based; conditions: 20 hours incubation, read-out: IDO1 HEK Human IC50
T2 construct: expressed in transfected cells
Procedure, shortened: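 HEK293 clones stably expressing human IDO1 were treated with compound for 20 h at 37 °C in phenol-red-free RPMI with 10% FBS, then stopped with 0.2% TCA and heated at 50 °C for 30 min. Kynurenine was read as absorbance at 490 nm after Ehrlich reagent. IC50 used DMSO as 0% and 500 nM reference standard as 100% inhibition.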

T1 sequence (P14902 whole entry): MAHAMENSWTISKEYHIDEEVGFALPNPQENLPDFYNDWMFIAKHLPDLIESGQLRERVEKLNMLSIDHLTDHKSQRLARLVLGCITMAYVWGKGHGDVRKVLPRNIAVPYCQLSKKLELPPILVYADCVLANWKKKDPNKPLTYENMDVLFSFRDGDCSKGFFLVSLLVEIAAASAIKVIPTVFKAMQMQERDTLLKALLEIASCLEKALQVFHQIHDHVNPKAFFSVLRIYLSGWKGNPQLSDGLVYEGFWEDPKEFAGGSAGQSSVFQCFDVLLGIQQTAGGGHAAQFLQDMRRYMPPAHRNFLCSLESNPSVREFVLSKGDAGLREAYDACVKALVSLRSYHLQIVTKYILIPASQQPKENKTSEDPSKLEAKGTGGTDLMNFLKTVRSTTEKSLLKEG
T2 sequence (P14902 whole entry): as above

Structure (SMILES)	IC50 [1] [µM]	IC50 (human IDO1) [µM]
C[C@@H](Nc1nnc(-c2ccc(C#N)cc2)[nH]1)[C@H]1CC[C@@H](c2ccnc3ccc(F)cc32)CC1 [Example 41, 4-(5-((R)-1-((1s,4S)-4-(6-Fluoroquinolin-4-yl)cyclohexyl)ethylamino)-4H-1,2,4-triazol-3-yl)benzonitrile]	0.39	0.0231
CC(C)Oc1ccc(-c2nnc([C@H](C)[C@H]3CC[C@@H](c4ccnc5ccc(F)cc54)CC3)o2)cc1 [Example 18, 2-((R)-1-((1s,4S)-4-(6-fluoroquinolin-4-yl)cyclohexyl)ethyl)-5-(4-isopropoxyphenyl)-1,3,4-oxadiazole]	0.0555	0.0663
CCC(Nc1nnc(-c2ccc(F)cc2)o1)C1CCC(c2ccnc3ccc(C(F)(F)F)cc23)CC1 (single isomer, unassigned) [Example 62, 5-(4-fluorophenyl)-N-(1-((1s,4s)-4-(6-(trifluoromethyl)quinolin-4-yl)cyclohexyl)propyl)-1,3,4-oxadiazol-2-amine]	0.0035	0.0017
C[C@@H](Nc1nnc(-c2ccc(Cl)cc2)s1)[C@H]1CC[C@@H](c2ccnc3ccc(F)cc32)CC1 [Example 24, 5-(4-Chlorophenyl)-N—((R)-1-((1s,4S)-4-(6-fluoroquinolin-4-yl)cyclohexyl)ethyl)-1,3,4-thiadiazol-2-amine]	0.0054	0.0055
